Assay [1] has as its system LXFS 573 SCLC patient-derived xenograft. The format is in vivo.
A further assay relates to NCI-H1417 SCLC xenograft. It counts as in vivo.
Where [2] appears, read: Etoposide at 24 mg/kg/day SC days 1-3 + Vehicle.
The mark [3] stands for this setting: etoposide monotherapy 24 mg/kg SC.
[4] abbreviates: etoposide monotherapy 24 mg/kg SC QD×3.

SMILES strings stand for the structures. Like-named read-outs stand apart in the source and are kept apart here.

In the case of `COc1cc([C@@H]2c3cc4c(cc3[C@@H](O[C@@H]3O[C@@H]5CO[C@@H](C)O[C@H]5[C@H](O)[C@H]3O)[C@H]3COC(=O)[C@H]23)OCO4)cc(OC)c1O` [Etoposide, etoposide, reference compound], in assay [1] (setting [2]), the “% TGD” value stood at 50%, the T-C was found to be 21 days and the “median TTE” value was determined as 63 days. Also, the “SS (number of study survivors)” value in assay [1] (Etoposide at 24 mg/kg/day SC days 1-3 + Vehicle, Day 133, N=8) was 0 (na). For the same compound, in assay [1] (setting [3]), the “% TGD” value amounted to 50% and the TGD amounted to 21 days. Further, in the assay with NCI-H1417 SCLC xenograft (24 mg/kg Etoposide SC QD × 3), the “% TGD” value is on record as 92%, the T-C was found to be 24 days and the “median TTE” value was found to be 50 days. Further, in the assay with NCI-H1417 SCLC xenograft (setting [4]), the “% TGD” value is reported as 92% and the TGD stood at 24 days.

These data come from patent US10960005B2, “Treatment of relapsed and/or refractory solid tumors and non-hodgkin's lymphomas” (CELGENE QUANTICEL RESEARCH, INC., priority 2016, dated 2021).
